Consider three compounds from ChEMBL document CHEMBL1201862, “PubChem BioAssay data set” (2004).

For assay [1], the target named is RAC-alpha serine/threonine-protein kinase (Homo sapiens, UniProt P31749). The class given is functional.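 Also: AKT1 affinity measured as one member of a kinome-wide kinase profiling panel.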
Assay [2] deals with Maternal embryonic leucine zipper kinase (Homo sapiens, UniProt Q14680). The class given is functional.
In assay [3] the target is Serine/threonine-protein kinase Chk2 (Homo sapiens, UniProt O96017). The class given is functional.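 Also: CHEK2 entry within a kinome-wide screening panel.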
Assay [4] concerns the target Tyrosine-protein kinase Fyn (Homo sapiens, UniProt P06241). The format is functional.
For assay [5], the target named is T1, Testis-specific serine/threonine-protein kinase 2 (Homo sapiens, UniProt Q96PF2).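 Also: part of the Navigating the Kinome panel, target entry STK22B.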
T1 sequence (Q96PF2 whole entry): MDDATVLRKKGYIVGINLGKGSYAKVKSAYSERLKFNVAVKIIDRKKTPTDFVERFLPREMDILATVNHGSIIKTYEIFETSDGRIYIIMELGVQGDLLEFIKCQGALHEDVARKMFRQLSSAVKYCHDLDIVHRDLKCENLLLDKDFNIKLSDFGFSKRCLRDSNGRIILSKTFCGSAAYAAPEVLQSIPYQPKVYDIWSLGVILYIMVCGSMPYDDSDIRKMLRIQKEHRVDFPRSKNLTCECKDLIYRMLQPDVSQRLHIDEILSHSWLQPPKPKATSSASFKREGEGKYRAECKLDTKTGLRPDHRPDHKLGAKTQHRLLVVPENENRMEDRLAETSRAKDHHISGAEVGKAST
The format is functional.

Assay [6] concerns the target 5'-AMP-activated protein kinase catalytic subunit alpha-1 (Homo sapiens, UniProt Q13131). The class given is functional.
The target in assay [7] is Interleukin-1 receptor-associated kinase 4 (Homo sapiens, UniProt Q9NWZ3). The format is functional.
The target of assay [8] is Dual specificity protein kinase CLK4 (Homo sapiens, UniProt Q9HAZ1). The format is functional.
Assay [9] addresses Mitogen-activated protein kinase kinase kinase kinase 2 (Homo sapiens, UniProt Q12851). The class given is functional.
Assay [10] addresses Testis-specific serine/threonine-protein kinase 1 (Homo sapiens, UniProt Q9BXA7). The format is functional.
The target of assay [11] is Mitogen-activated protein kinase 1 (Homo sapiens, UniProt P28482). The class given is functional.
Assay [12] has as its target Interleukin-1 receptor-associated kinase 1 (Homo sapiens, UniProt P51617). The class given is functional.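 Also: IRAK1 tested as one member of a kinome panel.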
For assay [13], the target named is Dual specificity tyrosine-phosphorylation-regulated kinase 1A (Homo sapiens, UniProt Q13627). The class given is functional.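 Also: measured against DYRK1A as one member of a broad kinome profiling panel.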
Assay [14] concerns the target Serine/threonine-protein kinase PLK4 (Homo sapiens, UniProt O00444). The format is functional.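 Also: PLK4 measured as one member of a kinome-wide kinase profiling panel.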
For assay [15], the target named is High affinity nerve growth factor receptor (Homo sapiens, UniProt P04629). The class given is functional.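 Also: NTRK1 tested as one member of a kinome-wide profiling panel.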
A further assay has as its target Cysteine protease ATG4B (Homo sapiens, UniProt Q9Y4P1). The class given is functional.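 Also: Fluorescence-based dose-response confirmation assay measuring inhibition of ATG4B activity.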
The target in assay [16] is T2, Mannose-6-phosphate isomerase (Homo sapiens, UniProt P34949).
T2 sequence (P34949 whole entry): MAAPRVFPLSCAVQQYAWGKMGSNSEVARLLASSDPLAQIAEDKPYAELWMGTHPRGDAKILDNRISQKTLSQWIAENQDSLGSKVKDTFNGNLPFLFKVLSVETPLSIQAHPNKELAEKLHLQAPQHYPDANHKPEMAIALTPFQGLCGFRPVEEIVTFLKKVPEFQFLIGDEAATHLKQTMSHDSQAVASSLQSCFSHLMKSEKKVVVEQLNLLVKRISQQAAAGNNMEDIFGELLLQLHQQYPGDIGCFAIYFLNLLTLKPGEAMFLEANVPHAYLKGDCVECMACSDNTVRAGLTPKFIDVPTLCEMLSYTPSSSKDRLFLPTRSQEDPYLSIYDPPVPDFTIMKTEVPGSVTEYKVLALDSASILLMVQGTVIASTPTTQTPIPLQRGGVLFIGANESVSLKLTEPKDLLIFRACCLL
Put plainly: human PMI inhibitors, high substrate, primary screen, biochemical, fluorescence intensity, high mannose 6-phosphate (AID 1220).

The target of assay [17] is T3, DNA repair and recombination protein RAD54-like (Homo sapiens, UniProt Q92698).
T3 sequence (Q92698 whole entry): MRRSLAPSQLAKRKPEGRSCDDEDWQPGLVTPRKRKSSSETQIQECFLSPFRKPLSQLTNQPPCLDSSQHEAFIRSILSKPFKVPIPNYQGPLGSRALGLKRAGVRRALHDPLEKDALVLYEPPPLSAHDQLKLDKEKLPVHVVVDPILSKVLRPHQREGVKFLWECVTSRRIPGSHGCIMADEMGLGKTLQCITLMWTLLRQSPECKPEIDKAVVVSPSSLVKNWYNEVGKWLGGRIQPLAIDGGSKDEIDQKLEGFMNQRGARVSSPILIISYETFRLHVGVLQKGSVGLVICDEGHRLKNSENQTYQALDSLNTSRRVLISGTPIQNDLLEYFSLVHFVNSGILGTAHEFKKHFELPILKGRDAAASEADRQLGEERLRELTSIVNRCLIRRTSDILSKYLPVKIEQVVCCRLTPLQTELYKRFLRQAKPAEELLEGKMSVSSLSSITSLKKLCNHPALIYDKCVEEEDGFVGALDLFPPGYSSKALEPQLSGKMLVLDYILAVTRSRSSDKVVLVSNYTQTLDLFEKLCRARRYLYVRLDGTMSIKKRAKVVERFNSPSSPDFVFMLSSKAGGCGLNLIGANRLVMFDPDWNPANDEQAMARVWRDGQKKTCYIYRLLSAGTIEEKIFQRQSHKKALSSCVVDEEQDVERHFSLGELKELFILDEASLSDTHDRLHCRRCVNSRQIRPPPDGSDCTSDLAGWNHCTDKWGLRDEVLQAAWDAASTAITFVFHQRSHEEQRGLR
The assay can be described thus: inhibitors of human RAD54 branch migration, confirmation, biochemical, fluorescence, cherry-picked samples, dose series (AID 651657). The format is functional.

For assay [18], the target named is Ras and Rab interactor 1/Tyrosine-protein kinase ABL1 (Homo sapiens, UniProt P00519+Q13671). The format is functional.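 Also: biochemical TR-FRET dose-response test measuring inhibition of binding between Rin1 and Abl proteins.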
For assay [19], the target named is T4, Sentrin-specific protease 8 (Homo sapiens, UniProt Q96LD8).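 Also: luminescence read-out of SENP8 inhibition, dose-response confirmation following an ultra-high-throughput screen.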
T4 sequence (Q96LD8 whole entry): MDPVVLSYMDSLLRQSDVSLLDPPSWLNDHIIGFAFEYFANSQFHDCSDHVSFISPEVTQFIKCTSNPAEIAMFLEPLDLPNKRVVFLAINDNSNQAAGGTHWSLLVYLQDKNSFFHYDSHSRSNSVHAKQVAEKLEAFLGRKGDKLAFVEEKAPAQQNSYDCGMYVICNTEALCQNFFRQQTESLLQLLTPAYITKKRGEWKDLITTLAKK
The class given is functional.

The source made the active and inactive calls. Bounds are passed on as bounds.

Sequence of Dual specificity protein kinase CLK4 (Q9HAZ1 whole entry): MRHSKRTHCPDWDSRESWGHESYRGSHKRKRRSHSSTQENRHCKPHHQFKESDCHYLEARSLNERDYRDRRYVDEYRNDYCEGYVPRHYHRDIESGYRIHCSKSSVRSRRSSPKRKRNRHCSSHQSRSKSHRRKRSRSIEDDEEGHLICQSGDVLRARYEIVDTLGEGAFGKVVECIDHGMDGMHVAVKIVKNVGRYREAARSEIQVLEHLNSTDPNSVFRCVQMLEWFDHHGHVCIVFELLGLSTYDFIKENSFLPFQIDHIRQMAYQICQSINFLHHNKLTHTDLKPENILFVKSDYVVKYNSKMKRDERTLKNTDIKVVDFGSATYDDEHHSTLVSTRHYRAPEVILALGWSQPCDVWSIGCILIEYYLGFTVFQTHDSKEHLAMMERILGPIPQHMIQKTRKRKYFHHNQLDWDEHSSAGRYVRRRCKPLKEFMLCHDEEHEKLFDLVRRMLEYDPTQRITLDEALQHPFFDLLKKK
Sequence of 5'-AMP-activated protein kinase catalytic subunit alpha-1 (Q13131 whole entry): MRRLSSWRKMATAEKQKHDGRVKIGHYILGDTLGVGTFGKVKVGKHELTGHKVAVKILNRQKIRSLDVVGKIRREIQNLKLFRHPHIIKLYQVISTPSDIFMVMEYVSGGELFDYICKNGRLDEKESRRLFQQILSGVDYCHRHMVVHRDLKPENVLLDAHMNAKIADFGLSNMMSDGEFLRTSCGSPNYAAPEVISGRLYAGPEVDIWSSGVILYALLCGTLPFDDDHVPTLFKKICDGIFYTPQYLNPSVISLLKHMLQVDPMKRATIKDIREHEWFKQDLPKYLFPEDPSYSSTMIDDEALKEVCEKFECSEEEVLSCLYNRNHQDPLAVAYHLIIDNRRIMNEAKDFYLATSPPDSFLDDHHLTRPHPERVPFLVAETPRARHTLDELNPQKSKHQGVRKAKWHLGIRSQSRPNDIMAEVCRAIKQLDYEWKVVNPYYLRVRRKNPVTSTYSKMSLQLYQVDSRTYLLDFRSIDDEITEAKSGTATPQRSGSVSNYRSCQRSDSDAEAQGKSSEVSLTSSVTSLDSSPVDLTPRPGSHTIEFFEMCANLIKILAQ
Sequence of Interleukin-1 receptor-associated kinase 4 (Q9NWZ3 whole entry): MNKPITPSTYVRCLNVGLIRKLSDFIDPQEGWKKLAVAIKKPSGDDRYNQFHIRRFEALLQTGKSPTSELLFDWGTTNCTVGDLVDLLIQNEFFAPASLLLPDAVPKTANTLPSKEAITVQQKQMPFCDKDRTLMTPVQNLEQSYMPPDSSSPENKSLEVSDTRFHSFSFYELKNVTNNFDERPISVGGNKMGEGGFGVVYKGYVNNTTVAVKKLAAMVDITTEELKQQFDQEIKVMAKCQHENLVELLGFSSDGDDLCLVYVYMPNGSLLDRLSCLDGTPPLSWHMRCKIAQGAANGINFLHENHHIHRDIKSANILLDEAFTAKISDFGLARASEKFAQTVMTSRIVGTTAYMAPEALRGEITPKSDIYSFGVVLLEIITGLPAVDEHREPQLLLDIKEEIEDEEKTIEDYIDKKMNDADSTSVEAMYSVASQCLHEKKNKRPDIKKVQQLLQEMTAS
Sequence of Serine/threonine-protein kinase Chk2 (O96017 whole entry): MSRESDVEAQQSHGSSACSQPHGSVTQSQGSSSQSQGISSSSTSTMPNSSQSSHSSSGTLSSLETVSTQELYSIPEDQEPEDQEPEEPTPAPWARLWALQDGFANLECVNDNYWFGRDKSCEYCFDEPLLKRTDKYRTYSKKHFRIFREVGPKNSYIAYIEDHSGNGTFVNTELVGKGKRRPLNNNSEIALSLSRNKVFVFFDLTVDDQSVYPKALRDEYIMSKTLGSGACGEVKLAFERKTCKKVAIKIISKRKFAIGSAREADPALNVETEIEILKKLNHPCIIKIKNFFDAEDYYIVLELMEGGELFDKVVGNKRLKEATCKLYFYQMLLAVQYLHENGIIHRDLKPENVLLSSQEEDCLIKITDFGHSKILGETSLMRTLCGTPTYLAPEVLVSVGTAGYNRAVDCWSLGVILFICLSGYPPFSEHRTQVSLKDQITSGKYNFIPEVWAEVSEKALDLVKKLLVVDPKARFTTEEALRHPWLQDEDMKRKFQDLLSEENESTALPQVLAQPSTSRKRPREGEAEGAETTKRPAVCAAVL
Sequence of Mitogen-activated protein kinase 1 (P28482 whole entry): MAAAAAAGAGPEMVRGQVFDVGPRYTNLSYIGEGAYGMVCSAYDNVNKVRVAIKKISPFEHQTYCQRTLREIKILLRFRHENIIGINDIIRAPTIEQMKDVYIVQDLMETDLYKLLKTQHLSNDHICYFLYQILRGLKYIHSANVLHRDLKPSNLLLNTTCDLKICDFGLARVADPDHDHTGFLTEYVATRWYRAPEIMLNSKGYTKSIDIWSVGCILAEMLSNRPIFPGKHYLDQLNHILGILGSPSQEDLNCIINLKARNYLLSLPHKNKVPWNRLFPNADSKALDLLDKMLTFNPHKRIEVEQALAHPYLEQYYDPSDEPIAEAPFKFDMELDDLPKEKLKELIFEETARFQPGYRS
Sequence of Cysteine protease ATG4B (Q9Y4P1 whole entry): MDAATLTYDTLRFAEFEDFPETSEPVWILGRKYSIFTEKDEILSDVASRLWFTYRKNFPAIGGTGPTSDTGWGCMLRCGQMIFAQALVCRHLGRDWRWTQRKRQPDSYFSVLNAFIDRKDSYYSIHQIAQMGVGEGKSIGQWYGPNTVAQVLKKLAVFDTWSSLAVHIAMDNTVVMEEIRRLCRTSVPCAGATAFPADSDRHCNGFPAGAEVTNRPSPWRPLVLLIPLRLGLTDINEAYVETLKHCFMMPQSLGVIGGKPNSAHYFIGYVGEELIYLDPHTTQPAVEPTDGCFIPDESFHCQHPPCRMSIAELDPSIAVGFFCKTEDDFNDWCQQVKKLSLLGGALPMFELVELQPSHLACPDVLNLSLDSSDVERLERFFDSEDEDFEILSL
Sequence of Ras and Rab interactor 1/Tyrosine-protein kinase ABL1 (P00519 whole entry): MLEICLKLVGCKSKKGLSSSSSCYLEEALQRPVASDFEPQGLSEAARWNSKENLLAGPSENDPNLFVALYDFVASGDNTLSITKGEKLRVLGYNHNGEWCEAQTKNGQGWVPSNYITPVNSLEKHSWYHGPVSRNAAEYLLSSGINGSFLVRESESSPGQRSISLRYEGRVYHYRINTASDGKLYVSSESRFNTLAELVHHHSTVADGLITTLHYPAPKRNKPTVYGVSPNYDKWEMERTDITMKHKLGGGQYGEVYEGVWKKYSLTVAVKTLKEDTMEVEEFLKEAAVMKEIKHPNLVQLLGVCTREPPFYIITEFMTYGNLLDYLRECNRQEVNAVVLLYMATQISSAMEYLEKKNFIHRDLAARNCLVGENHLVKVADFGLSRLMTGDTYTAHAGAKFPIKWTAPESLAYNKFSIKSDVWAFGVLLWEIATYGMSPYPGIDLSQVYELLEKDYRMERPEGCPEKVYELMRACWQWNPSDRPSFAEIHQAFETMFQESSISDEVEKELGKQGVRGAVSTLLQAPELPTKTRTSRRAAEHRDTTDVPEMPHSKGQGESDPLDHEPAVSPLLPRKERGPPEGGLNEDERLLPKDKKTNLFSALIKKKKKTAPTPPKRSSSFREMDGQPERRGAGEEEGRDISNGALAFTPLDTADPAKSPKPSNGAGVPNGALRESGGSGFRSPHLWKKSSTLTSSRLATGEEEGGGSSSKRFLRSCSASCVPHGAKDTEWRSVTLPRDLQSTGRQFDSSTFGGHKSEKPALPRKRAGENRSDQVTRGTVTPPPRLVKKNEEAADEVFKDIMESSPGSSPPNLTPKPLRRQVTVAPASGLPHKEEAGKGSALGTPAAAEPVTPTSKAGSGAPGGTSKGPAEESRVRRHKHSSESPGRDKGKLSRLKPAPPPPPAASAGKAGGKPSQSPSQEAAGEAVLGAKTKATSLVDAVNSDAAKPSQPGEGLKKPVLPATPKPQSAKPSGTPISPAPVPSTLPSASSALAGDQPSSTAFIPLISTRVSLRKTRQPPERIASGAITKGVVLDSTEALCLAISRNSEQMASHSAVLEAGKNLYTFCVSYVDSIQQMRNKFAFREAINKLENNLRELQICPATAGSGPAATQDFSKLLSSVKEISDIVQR
Sequence of Ras and Rab interactor 1/Tyrosine-protein kinase ABL1 (Q13671 whole entry): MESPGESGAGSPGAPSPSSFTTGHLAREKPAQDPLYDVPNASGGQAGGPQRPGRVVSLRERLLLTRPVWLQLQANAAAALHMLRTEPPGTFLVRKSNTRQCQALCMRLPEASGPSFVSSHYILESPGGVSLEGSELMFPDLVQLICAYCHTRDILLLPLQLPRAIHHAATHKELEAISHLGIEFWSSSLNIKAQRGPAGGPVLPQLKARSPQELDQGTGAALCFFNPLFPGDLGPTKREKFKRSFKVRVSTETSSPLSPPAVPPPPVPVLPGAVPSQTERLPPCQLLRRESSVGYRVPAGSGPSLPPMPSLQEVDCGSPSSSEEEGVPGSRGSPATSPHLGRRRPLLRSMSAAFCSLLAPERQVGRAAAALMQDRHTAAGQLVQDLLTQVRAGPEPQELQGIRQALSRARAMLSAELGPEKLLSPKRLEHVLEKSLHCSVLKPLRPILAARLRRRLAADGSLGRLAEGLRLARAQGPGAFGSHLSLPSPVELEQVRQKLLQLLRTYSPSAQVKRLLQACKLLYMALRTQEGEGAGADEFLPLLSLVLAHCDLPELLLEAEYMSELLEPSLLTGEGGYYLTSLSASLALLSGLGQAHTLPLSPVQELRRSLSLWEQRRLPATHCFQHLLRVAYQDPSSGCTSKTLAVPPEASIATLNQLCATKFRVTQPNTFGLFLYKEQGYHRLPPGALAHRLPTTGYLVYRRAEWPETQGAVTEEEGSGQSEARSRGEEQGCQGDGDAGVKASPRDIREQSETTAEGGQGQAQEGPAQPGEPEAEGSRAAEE

Take `COc1cc2ncn(-c3cc(OCc4ccccc4C(F)(F)F)c(C(N)=O)s3)c2cc1OC` [GW843682X]: the Ki (usually the equilibrium dissociation constant of an inhibitor or competing ligand from its target) in [1] is > 7.94 µM (inactive); in assay [2], 0.158 µM (active); in assay [3], > 5.01 µM (inactive); in assay [4], > 0.794 µM (inactive); in assay [5] it was 0.0631 µM (active); in [6], > 5.01 µM (inactive). The Ki in [7] was > 10 µM (inactive); in assay [8] it was 0.398 µM (active); in [9], > 6.31 µM (inactive); in assay [10], 0.2 µM (active); in assay [11] it was > 7.94 µM (inactive); in assay [12] it was > 7.94 µM (inactive). In addition, the Ki in [13] is 5.01 µM (active); in assay [14], 0.2 µM (active); in assay [15] it was 0.398 µM (active).
Regarding `CCCc1nc2c(=O)n(C)c(=O)nc-2n(C)n1`, the IC50 (commonly the midpoint of a concentration-inhibition curve) was 2.84 µM (active) at Cysteine protease ATG4B, 13.2 µM (active) in assay [16] and 0.527 µM (active) in [18]. Moreover, in assay [17], the AC50 (in general, the concentration at which the activity in the assay is half-maximal) is 1.13 µM (active).
As for `CC(=O)c1ccc(NC2=C(N3CCOCC3)C(=O)c3ccccc3C2=O)cc1`, the IC50 in assay [19] was 18.8 µM (active).
